In ChEMBL document CHEMBL1127066, “Discovery and structure-activity relationship of a series of 1-carba-1-dethiacephems exhibiting activity against methicillin-resistant Staphylococcus aureus” (J Med Chem, 1993):
Converted amounts (≈) assume the structure as drawn.

Test system: Staphylococcus aureus
Experiment: In vitro antimicrobial activity against Staphylococcus aureus X400 strain
Type: functional
With COC(=O)c1sc(SC2=C(C(=O)[O-])N3C(=O)[C@@H](NC(=O)/C(=N/OCCF)c4csc(N)n4)[C@H]3CC2)nc1C.[Na+] the MIC was 128 µg/mL.
Work on COc1cccc(OC)c1C(=O)N[C@@H]1C(=O)N2[C@@H]1SC(C)(C)[C@@H]2C(=O)O [METHICILLIN] yielded an MIC of 64 µg/mL (≈ 168 µM).
Nc1nc(/C(=N\OCCF)C(=O)N[C@@H]2C(=O)N3C(C(=O)[O-])=C(Sc4nc(C(=O)OCc5ccccc5)cs4)CC[C@H]23)cs1.[Na+] gave an MIC of 32 µg/mL.

Test system: Klebsiella
Experiment: In vitro antimicrobial activity against Klebsiella X26 strain
Type: functional
COC(=O)c1sc(SC2=C(C(=O)[O-])N3C(=O)[C@@H](NC(=O)/C(=N/OCCF)c4csc(N)n4)[C@H]3CC2)nc1C.[Na+] showed an MIC of 0.125 µg/mL.
For COc1cccc(OC)c1C(=O)N[C@@H]1C(=O)N2[C@@H]1SC(C)(C)[C@@H]2C(=O)O [METHICILLIN], the MIC was 32 µg/mL (≈ 84.1 µM).
For Nc1nc(/C(=N\OCCF)C(=O)N[C@@H]2C(=O)N3C(C(=O)[O-])=C(Sc4nc(C(=O)OCc5ccccc5)cs4)CC[C@H]23)cs1.[Na+], the MIC was 0.015 µg/mL.

Test system: Pseudomonas aeruginosa
Experiment: Antimicrobial activity against Pseudomonas PS18 strain
Type: functional
Work on COC(=O)c1sc(SC2=C(C(=O)[O-])N3C(=O)[C@@H](NC(=O)/C(=N/OCCF)c4csc(N)n4)[C@H]3CC2)nc1C.[Na+] yielded an MIC of over 128 µg/mL.
For COc1cccc(OC)c1C(=O)N[C@@H]1C(=O)N2[C@@H]1SC(C)(C)[C@@H]2C(=O)O [METHICILLIN], the MIC was over 128 µg/mL.
Work on Nc1nc(/C(=N\OCCF)C(=O)N[C@@H]2C(=O)N3C(C(=O)[O-])=C(Sc4nc(C(=O)OCc5ccccc5)cs4)CC[C@H]23)cs1.[Na+] yielded an MIC of 64 µg/mL.

Test system: Staphylococcus aureus
Experiment: Minimum inhibitory concentration against heteroresistant strain of Staphylococcus aureus 430 in 4% of NaCl
Type: functional
COc1cccc(OC)c1C(=O)N[C@@H]1C(=O)N2[C@@H]1SC(C)(C)[C@@H]2C(=O)O [METHICILLIN] gave an MIC of 256 µg/mL (≈ 673 µM).

Test system: Staphylococcus aureus
Experiment: Minimum inhibitory concentration against homoresistant strain of Staphylococcus aureus 447 in 4% of NaCl
Type: functional
Work on COc1cccc(OC)c1C(=O)N[C@@H]1C(=O)N2[C@@H]1SC(C)(C)[C@@H]2C(=O)O [METHICILLIN] yielded an MIC of over 512 µg/mL.

Target: not listed separately
Experiment: Tested against penicillin binding protein 2a (PBP2a) enzyme.
With COc1cccc(OC)c1C(=O)N[C@@H]1C(=O)N2[C@@H]1SC(C)(C)[C@@H]2C(=O)O [METHICILLIN] the IC50 was 456 µg/mL (≈ 1200 µM).

Test system: Streptococcus pneumoniae
Experiment: In vitro antimicrobial activity against Streptococcus pneumoniae PARK strain
Type: functional
For COC(=O)c1sc(SC2=C(C(=O)[O-])N3C(=O)[C@@H](NC(=O)/C(=N/OCCF)c4csc(N)n4)[C@H]3CC2)nc1C.[Na+], the MIC was under 0.008 µg/mL.
In the case of COc1cccc(OC)c1C(=O)N[C@@H]1C(=O)N2[C@@H]1SC(C)(C)[C@@H]2C(=O)O [METHICILLIN], the MIC is reported as 0.5 µg/mL (≈ 1.31 µM).
Nc1nc(/C(=N\OCCF)C(=O)N[C@@H]2C(=O)N3C(C(=O)[O-])=C(Sc4nc(C(=O)OCc5ccccc5)cs4)CC[C@H]23)cs1.[Na+] showed an MIC of under 0.008 µg/mL.

Test system: Staphylococcus aureus
Experiment: Minimum inhibitory concentration against methicillin-resistant Staphylococcus aureus 430 (MRSA) in vitro using trypticase soy broth (TSB) with 4% NaCl
Type: functional
COc1cccc(OC)c1C(=O)N[C@@H]1C(=O)N2[C@@H]1SC(C)(C)[C@@H]2C(=O)O [METHICILLIN] showed an MIC of 256 µg/mL (≈ 673 µM).

Test system: Staphylococcus aureus
Experiment: Minimum inhibitory concentration against sensitive strain of Staphylococcus aureus 446 in the absence of NaCl
Type: functional
Compound COc1cccc(OC)c1C(=O)N[C@@H]1C(=O)N2[C@@H]1SC(C)(C)[C@@H]2C(=O)O [METHICILLIN] has an MIC of 1 µg/mL (≈ 2.63 µM).

Test system: Pseudomonas aeruginosa
Experiment: In vitro antimicrobial activity against Pseudomonas X239 strain
Type: functional
In the case of COC(=O)c1sc(SC2=C(C(=O)[O-])N3C(=O)[C@@H](NC(=O)/C(=N/OCCF)c4csc(N)n4)[C@H]3CC2)nc1C.[Na+], the MIC is reported as over 128 µg/mL.
COc1cccc(OC)c1C(=O)N[C@@H]1C(=O)N2[C@@H]1SC(C)(C)[C@@H]2C(=O)O [METHICILLIN] gave an MIC of over 128 µg/mL.
In the case of Nc1nc(/C(=N\OCCF)C(=O)N[C@@H]2C(=O)N3C(C(=O)[O-])=C(Sc4nc(C(=O)OCc5ccccc5)cs4)CC[C@H]23)cs1.[Na+], the MIC is reported as 128 µg/mL.

Test system: Staphylococcus aureus
Experiment: In vitro antimicrobial activity against Staphylococcus aureus X1.1 strain
Type: functional
COC(=O)c1sc(SC2=C(C(=O)[O-])N3C(=O)[C@@H](NC(=O)/C(=N/OCCF)c4csc(N)n4)[C@H]3CC2)nc1C.[Na+] showed an MIC of 0.25 µg/mL.
COc1cccc(OC)c1C(=O)N[C@@H]1C(=O)N2[C@@H]1SC(C)(C)[C@@H]2C(=O)O [METHICILLIN] gave an MIC of 2 µg/mL (≈ 5.26 µM).
Nc1nc(/C(=N\OCCF)C(=O)N[C@@H]2C(=O)N3C(C(=O)[O-])=C(Sc4nc(C(=O)OCc5ccccc5)cs4)CC[C@H]23)cs1.[Na+] showed an MIC of 0.25 µg/mL.

Test system: Staphylococcus aureus
Experiment: Minimum inhibitory concentration against heteroresistant strain of Staphylococcus aureus 430 in the absence of NaCl
Type: functional
Compound COc1cccc(OC)c1C(=O)N[C@@H]1C(=O)N2[C@@H]1SC(C)(C)[C@@H]2C(=O)O [METHICILLIN] has an MIC of 8 µg/mL (≈ 21 µM).

Test system: Enterobacter cloacae
Experiment: In vitro evaluation of antimicrobial activity against Enterobacter cloacae EB5 strain
Type: functional
Compound COC(=O)c1sc(SC2=C(C(=O)[O-])N3C(=O)[C@@H](NC(=O)/C(=N/OCCF)c4csc(N)n4)[C@H]3CC2)nc1C.[Na+] has an MIC of 8 µg/mL.
For COc1cccc(OC)c1C(=O)N[C@@H]1C(=O)N2[C@@H]1SC(C)(C)[C@@H]2C(=O)O [METHICILLIN], the MIC was over 128 µg/mL.
For Nc1nc(/C(=N\OCCF)C(=O)N[C@@H]2C(=O)N3C(C(=O)[O-])=C(Sc4nc(C(=O)OCc5ccccc5)cs4)CC[C@H]23)cs1.[Na+], the MIC was 2 µg/mL.

Test system: Staphylococcus aureus
Experiment: Minimum inhibitory concentration against homoresistant strain of Staphylococcus aureus 447 in the absence of NaCl
Type: functional
Compound COc1cccc(OC)c1C(=O)N[C@@H]1C(=O)N2[C@@H]1SC(C)(C)[C@@H]2C(=O)O [METHICILLIN] has an MIC of over 512 µg/mL.

Test system: Haemophilus influenzae
Experiment: In vitro antimicrobial activity against Haemophilus influenzae C.L. strain
Type: functional
Work on COC(=O)c1sc(SC2=C(C(=O)[O-])N3C(=O)[C@@H](NC(=O)/C(=N/OCCF)c4csc(N)n4)[C@H]3CC2)nc1C.[Na+] yielded an MIC of 0.06 µg/mL.
COc1cccc(OC)c1C(=O)N[C@@H]1C(=O)N2[C@@H]1SC(C)(C)[C@@H]2C(=O)O [METHICILLIN] gave an MIC of 4 µg/mL (≈ 10.5 µM).
For Nc1nc(/C(=N\OCCF)C(=O)N[C@@H]2C(=O)N3C(C(=O)[O-])=C(Sc4nc(C(=O)OCc5ccccc5)cs4)CC[C@H]23)cs1.[Na+], the MIC was 0.03 µg/mL.

Test system: Staphylococcus epidermidis
Experiment: In vitro antimicrobial activity against Staphylococcus epidermidis 270 strain
Type: functional
COC(=O)c1sc(SC2=C(C(=O)[O-])N3C(=O)[C@@H](NC(=O)/C(=N/OCCF)c4csc(N)n4)[C@H]3CC2)nc1C.[Na+] gave an MIC of 8 µg/mL.
COc1cccc(OC)c1C(=O)N[C@@H]1C(=O)N2[C@@H]1SC(C)(C)[C@@H]2C(=O)O [METHICILLIN] showed an MIC of 4 µg/mL (≈ 10.5 µM).
With Nc1nc(/C(=N\OCCF)C(=O)N[C@@H]2C(=O)N3C(C(=O)[O-])=C(Sc4nc(C(=O)OCc5ccccc5)cs4)CC[C@H]23)cs1.[Na+] the MIC was 2 µg/mL.

Test system: Escherichia coli
Experiment: In vitro evaluation of antimicrobial activity against Escherichia coli EC14 strain
Type: functional
Compound COC(=O)c1sc(SC2=C(C(=O)[O-])N3C(=O)[C@@H](NC(=O)/C(=N/OCCF)c4csc(N)n4)[C@H]3CC2)nc1C.[Na+] has an MIC of 2 µg/mL.
For COc1cccc(OC)c1C(=O)N[C@@H]1C(=O)N2[C@@H]1SC(C)(C)[C@@H]2C(=O)O [METHICILLIN], the MIC was over 128 µg/mL.
With Nc1nc(/C(=N\OCCF)C(=O)N[C@@H]2C(=O)N3C(C(=O)[O-])=C(Sc4nc(C(=O)OCc5ccccc5)cs4)CC[C@H]23)cs1.[Na+] the MIC was 0.25 µg/mL.

Test system: Staphylococcus aureus
Experiment: In vitro antimicrobial activity against Staphylococcus aureus S13E strain
Type: functional
In the case of COC(=O)c1sc(SC2=C(C(=O)[O-])N3C(=O)[C@@H](NC(=O)/C(=N/OCCF)c4csc(N)n4)[C@H]3CC2)nc1C.[Na+], the MIC is reported as 16 µg/mL.
Compound COc1cccc(OC)c1C(=O)N[C@@H]1C(=O)N2[C@@H]1SC(C)(C)[C@@H]2C(=O)O [METHICILLIN] has an MIC of 8 µg/mL (≈ 21 µM).
With Nc1nc(/C(=N\OCCF)C(=O)N[C@@H]2C(=O)N3C(C(=O)[O-])=C(Sc4nc(C(=O)OCc5ccccc5)cs4)CC[C@H]23)cs1.[Na+] the MIC was 8 µg/mL.

Test system: Staphylococcus aureus
Experiment: Minimum inhibitory concentration against sensitive strain of Staphylococcus aureus 446 in 4% of NaCl
Type: functional
In the case of COc1cccc(OC)c1C(=O)N[C@@H]1C(=O)N2[C@@H]1SC(C)(C)[C@@H]2C(=O)O [METHICILLIN], the MIC is reported as 1 µg/mL (≈ 2.63 µM).

Test system: Staphylococcus epidermidis
Experiment: In vitro antimicrobial activity against Staphylococcus epidermidis 222 strain
Type: functional
With COC(=O)c1sc(SC2=C(C(=O)[O-])N3C(=O)[C@@H](NC(=O)/C(=N/OCCF)c4csc(N)n4)[C@H]3CC2)nc1C.[Na+] the MIC was 2 µg/mL.
Work on COc1cccc(OC)c1C(=O)N[C@@H]1C(=O)N2[C@@H]1SC(C)(C)[C@@H]2C(=O)O [METHICILLIN] yielded an MIC of 4 µg/mL (≈ 10.5 µM).
Compound Nc1nc(/C(=N\OCCF)C(=O)N[C@@H]2C(=O)N3C(C(=O)[O-])=C(Sc4nc(C(=O)OCc5ccccc5)cs4)CC[C@H]23)cs1.[Na+] has an MIC of 0.5 µg/mL.

Test system: Staphylococcus aureus
Experiment: Minimum inhibitory concentration against methicillin-resistant Staphylococcus aureus 430 (MRSA) in vitro using trypticase soy broth (TSB)
Type: functional
COc1cccc(OC)c1C(=O)N[C@@H]1C(=O)N2[C@@H]1SC(C)(C)[C@@H]2C(=O)O [METHICILLIN] gave an MIC of 8 µg/mL (≈ 21 µM).
